Measured values as given in patent publication US20100099614A1, “Antimicrobial Peptides and Methods of Use” (priority 2008, published 2010).
Where two headings read alike, the source gives them in different places.

What was measured:
[1] = test system: Rhizopus oryzae (AZN 8892)
[2] = test system: Mycobacterium tuberculosis strain H37Rv
[3] = Helical structure by circular dichroism spectroscopy; format: physicochemical; conditions: 222 nm
Experimental: The mean residue molar ellipticities of peptides were determined by circular dichroism (CD) spectroscopy, using a Jasco J-810 spectropolarimeter (Easton, Md.) at 5° C. under benign (non-denaturing) conditions (50 mM NaH2PO4/Na2HPO4/100 mM KCl, pH 7.0), hereafter referred to as benign buffer, as well as in the presence of an α-helix inducing solvent, 2,2,2-trifluoroethanol, TFE, (50 mM NaH2PO4/Na2HPO4/[…], pH 7.0 buffer/50% TFE). A 10-fold dilution of an approximately […] stock solution of the peptide analogs was loaded into a 0.1 cm quartz cell and its ellipticity scanned from 195 to 250 nm. The values of molar ellipticities of the peptide analogs at a wavelength of 222 nm were used to estimate the relative α-helicity of the peptides.

CC[C@@H](C)[C@@H](NC(=O)[C@@H](C)NC(=O)[C@@H](CCCCN)NC(=O)[C@@H](CC(C)C)NC(=O)[C@@H](C)NC(=O)[C@H](NC(=O)[C@@H](Cc1c[nH]cn1)NC(=O)[C@@H](CC(C)C)NC(=O)[C@H](NC(=O)[C@H](NC(=O)[C@@H](CCCCN)NC(=O)[C@@H](CCCCN)NC(=O)[C@@H](C)NC(=O)[C@@H](CO)NC(=O)[C@@H](CCCCN)NC(=O)[C@@H](Cc1ccccc1)NC(=O)[C@H](NC(=O)[C@@H](CCCCN)NC(=O)[C@@H](CC(C)C)NC(=O)[C@@H](Cc1ccccc1)NC(=O)[C@@H](CO)NC(=O)[C@@H](CCCCN)NC(=O)[C@@H](Cc1c[nH]c2ccccc12)NC(=O)[C@@H](CCCCN)NC(C)=O)[C@H](C)O)[C@H](C)O)C(C)C)[C@H](C)O)C(=O)N[C@H](CO)C(=O)N[C@H](CO)C(N)=O [D1]
R. oryzae MIC50 ([1]; inhibits 50% of fungal growth): 18.8 µg/mL
R. oryzae MIC90 ([1]; inhibits 90% of fungal growth): 25.0 µg/mL
GM (geometric mean of the MIC50 values), Zygomycota fungi (Zygomycota fungi; four Zygomycota strains): 9.1 µg/mL
Fold improvement in antifungal activity (geometric mean data) compared to that of D4, Zygomycota fungi (Zygomycota fungi; relative to D4): 5.5 fold
Anti-tuberculosis activity MIC [2]: 70.7 ± 14.8 µg/mL
Anti-tuberculosis activity to H37Rv strain Fold (compared to D4) [2]: 2.3 fold
Anti-tuberculosis activity MIC ([2]; H37Rv): 23.6 ± 5.0 µM
Anti-tuberculosis activity to H37Rv strain MIC ([2]; H37Rv): 23.6 µM
Anti-tuberculosis activity to H37Rv strain MIC ([2]; further experiments, […]): 70.7 µg/mL
50% TFE [θ]222 (mean residue molar ellipticity) ([3]; benign buffer containing 50% trifluoroethanol): 34,100 deg cm^2/dmol
Benign [θ]222 (mean residue molar ellipticity) ([3]; benign conditions (100 mM KCl, 50 mM NaH2PO4/Na2HPO4, pH 7.0)): 1,150 deg cm^2/dmol
